Test results taken from patent US20240269139A1, “COMPOUNDS FOR TARGETED PROTEIN DEGRADATION OF KINASES” (DANA-FARBER CANCER INSTITUTE, INC., priority 2020, published 2024).
Read-outs that look alike come from different tables or passages of the source.

Assays:
Assay type in all cases: cell-based
[1] = molecular target: T1, protein kinases (human kinome) (Homo sapiens, UniProt O14965)
T1 sequence (O14965 1-403): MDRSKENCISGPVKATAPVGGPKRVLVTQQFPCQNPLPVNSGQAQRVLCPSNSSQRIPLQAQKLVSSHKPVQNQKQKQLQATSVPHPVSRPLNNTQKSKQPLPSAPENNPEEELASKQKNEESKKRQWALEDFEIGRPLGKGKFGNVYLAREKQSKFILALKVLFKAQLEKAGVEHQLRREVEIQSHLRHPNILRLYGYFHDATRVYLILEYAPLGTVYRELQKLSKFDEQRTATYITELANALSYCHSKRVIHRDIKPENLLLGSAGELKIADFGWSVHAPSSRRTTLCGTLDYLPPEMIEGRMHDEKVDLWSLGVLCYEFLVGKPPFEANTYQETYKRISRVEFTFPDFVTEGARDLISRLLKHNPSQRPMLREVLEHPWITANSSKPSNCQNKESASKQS

[2] = molecular target: T2, protein kinases (human kinome) (Homo sapiens, UniProt O75385); details: for logFC: ULK1 (O75385) protein abundance, degrader vs DMSO, down; for logFC ULK1: ULK1 O75385, experiment wp160
T2 sequence (O75385 1-1050): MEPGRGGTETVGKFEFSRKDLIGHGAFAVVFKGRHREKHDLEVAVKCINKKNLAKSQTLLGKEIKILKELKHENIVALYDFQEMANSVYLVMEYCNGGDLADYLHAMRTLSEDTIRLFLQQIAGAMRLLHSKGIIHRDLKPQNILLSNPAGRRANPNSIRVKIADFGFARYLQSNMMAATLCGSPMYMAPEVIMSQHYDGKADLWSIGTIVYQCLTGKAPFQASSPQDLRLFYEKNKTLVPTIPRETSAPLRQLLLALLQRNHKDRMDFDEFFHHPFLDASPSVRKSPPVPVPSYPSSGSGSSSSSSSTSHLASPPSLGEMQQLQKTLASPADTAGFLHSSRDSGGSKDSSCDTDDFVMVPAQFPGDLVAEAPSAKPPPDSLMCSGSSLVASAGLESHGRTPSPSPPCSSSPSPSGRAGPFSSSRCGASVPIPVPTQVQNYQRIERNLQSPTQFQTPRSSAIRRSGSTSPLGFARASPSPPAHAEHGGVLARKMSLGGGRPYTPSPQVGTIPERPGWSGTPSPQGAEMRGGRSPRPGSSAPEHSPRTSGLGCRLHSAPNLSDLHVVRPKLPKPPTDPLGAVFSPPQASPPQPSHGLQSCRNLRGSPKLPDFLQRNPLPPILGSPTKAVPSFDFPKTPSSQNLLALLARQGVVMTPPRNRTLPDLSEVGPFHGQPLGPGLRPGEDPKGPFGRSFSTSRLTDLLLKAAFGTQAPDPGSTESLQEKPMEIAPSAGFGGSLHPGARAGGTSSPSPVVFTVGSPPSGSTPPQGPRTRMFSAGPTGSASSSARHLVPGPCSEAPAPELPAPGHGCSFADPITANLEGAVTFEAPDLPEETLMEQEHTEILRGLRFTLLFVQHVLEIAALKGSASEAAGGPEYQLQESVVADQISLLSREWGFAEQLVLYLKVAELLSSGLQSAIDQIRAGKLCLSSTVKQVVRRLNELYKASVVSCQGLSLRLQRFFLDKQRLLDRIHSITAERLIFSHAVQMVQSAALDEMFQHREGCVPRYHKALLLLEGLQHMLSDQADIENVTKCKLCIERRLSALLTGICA

[3] = molecular target: protein kinases (human kinome) (Homo sapiens, UniProt P16591); details: for logFC of FER (P16591-1): down
Chain of protein kinases (human kinome) (Homo sapiens, UniProt P16591) (P16591 whole entry): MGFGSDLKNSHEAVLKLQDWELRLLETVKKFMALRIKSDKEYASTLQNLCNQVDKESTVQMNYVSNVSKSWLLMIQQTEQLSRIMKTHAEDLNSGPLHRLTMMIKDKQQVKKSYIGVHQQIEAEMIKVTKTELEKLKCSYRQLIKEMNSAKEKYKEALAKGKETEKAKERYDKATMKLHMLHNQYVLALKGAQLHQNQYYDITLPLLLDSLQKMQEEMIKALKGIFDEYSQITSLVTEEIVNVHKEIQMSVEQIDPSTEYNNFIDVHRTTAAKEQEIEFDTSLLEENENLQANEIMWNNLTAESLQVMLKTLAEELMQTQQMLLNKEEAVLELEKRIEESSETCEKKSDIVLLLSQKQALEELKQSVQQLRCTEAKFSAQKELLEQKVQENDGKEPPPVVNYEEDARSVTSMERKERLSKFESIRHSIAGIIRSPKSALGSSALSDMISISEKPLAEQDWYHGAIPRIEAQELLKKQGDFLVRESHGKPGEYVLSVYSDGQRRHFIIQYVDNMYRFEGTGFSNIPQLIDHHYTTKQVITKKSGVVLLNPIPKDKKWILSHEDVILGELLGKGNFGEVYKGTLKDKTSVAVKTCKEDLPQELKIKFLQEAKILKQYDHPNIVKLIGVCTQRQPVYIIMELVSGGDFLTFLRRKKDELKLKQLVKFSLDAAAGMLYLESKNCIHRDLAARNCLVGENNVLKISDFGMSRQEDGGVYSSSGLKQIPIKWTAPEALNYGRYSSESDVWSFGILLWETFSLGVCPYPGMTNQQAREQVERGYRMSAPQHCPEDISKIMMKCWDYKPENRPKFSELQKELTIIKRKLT

[4] = molecular target: protein kinases (human kinome) (Homo sapiens, UniProt P30291)
Chain of protein kinases (human kinome) (Homo sapiens, UniProt P30291) (P30291 whole entry): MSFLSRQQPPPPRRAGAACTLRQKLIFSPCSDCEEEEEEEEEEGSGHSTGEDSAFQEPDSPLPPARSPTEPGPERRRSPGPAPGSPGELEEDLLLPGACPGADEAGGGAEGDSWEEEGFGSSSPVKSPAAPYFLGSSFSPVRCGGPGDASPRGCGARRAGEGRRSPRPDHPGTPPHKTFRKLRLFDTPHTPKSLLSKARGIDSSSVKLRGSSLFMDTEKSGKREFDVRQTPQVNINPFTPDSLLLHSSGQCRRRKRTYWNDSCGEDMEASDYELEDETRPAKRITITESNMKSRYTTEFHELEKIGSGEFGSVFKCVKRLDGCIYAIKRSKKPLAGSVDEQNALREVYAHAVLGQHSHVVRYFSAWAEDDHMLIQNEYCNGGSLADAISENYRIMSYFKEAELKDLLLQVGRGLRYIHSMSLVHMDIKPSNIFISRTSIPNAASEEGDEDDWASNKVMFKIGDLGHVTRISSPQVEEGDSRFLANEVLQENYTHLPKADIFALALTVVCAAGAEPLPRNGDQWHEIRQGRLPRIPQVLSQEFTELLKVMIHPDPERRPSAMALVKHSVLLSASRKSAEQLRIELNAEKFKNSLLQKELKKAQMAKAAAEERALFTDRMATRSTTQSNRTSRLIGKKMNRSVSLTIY

[5] = molecular target: protein kinases (human kinome) (Homo sapiens, UniProt Q9H0K1); details: for logFC of SIK2: Accession Q9H0K1; for logFC SIK2 (Q9H0K1): direction of change down
Chain of protein kinases (human kinome) (Homo sapiens, UniProt Q9H0K1) (Q9H0K1 whole entry): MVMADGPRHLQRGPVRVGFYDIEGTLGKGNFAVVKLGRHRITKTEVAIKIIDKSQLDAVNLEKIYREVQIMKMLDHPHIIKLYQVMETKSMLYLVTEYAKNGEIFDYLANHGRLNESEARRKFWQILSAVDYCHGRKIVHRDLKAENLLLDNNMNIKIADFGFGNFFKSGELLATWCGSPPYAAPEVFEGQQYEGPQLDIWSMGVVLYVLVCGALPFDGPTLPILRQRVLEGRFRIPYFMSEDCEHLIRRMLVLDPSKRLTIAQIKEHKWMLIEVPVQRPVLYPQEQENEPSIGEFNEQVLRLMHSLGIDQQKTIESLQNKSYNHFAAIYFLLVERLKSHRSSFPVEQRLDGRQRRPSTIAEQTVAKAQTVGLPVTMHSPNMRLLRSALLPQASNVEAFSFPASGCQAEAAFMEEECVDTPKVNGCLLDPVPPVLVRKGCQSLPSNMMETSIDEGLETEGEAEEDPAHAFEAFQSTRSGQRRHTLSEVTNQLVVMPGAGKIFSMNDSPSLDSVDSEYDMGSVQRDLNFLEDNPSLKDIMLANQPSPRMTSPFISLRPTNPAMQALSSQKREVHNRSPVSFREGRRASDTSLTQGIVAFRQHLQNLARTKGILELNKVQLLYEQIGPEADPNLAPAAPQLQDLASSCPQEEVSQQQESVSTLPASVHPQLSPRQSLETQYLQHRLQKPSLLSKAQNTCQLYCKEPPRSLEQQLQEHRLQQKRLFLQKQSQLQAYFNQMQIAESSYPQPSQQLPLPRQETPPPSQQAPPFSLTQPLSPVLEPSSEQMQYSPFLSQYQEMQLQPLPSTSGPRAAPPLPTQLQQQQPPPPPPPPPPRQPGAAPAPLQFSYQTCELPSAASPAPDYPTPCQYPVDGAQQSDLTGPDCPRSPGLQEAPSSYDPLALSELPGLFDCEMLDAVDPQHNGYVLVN

[6] = tested on: protein kinases (human kinome); details: for logFC FYN: Accession P06241-2; for logFC of SRC: Accession P12931-2
[7] = Experiment wp107, direction down

Cc1ccc(NC(=O)c2cccc(C(F)(F)F)c2)cc1N1Cc2cnc(Nc3ccc(N4CCN(Cc5cn(CCCCCOc6cccc7c6C(=O)N(C6CCC(=O)NC6=O)C7=O)nn5)CC4)nc3)nc2N(C)C1=O (stereo not shown) [DB0646, N-(3-(7-((6-(4-((1-(5-((2-(2,6-Dioxopiperidin-3-yl)-1,3-dioxoisoindolin-4-yl)oxy)pentyl)-1H-1,2,3-triazol-4-yl)methyl)piperazin-1-v)pyridin-3-yl)amino)-1-methyl-2-oxo-1,4-dihydropyrimido[4,5-d]pyrimidin-3(2H)-yl)-4-methylphenyl)-3-(trifluoromethyl)benzamide]
logFC AURKA (O14965) ([1]; experiment wp045): −0.3242
logFC AURKA (O14965) ([1]; experiment wp160, 4 hr): −0.4478
logFC ([2]; 4 hr): −0.3412
logFC ([2]; 8 hr): −0.3989
logFC ULK1 ([2]; 4 hr): −0.3412
logFC ULK1 ([2]; 8 hr): −0.3989
logFC of FER (P16591-1) ([3]; Experiment wp045): −1.712
logFC of FER (P16591-1) ([3]; Experiment wp103): −1.628
logFC of FER (P16591-1) ([3]; Experiment wp105): −0.8737
logFC of FER (P16591-1) ([3]; Experiment wp107): −1.722
logFC of FER (P16591-1) ([3]; Experiment wp117): −1.753
logFC of FER (P16591-1) ([3]; Experiment wp160, 2 hr): −0.5384
logFC of FER (P16591-1) ([3]; Experiment wp160, 4 hr): −1.454
logFC of FER (P16591-1) ([3]; Experiment wp160, 8 hr): −1.737
logFC of FER ([3]; FER P16591-1, experiment wp045): −1.712
logFC of FER ([3]; FER P16591-1, experiment wp103): −1.628
logFC of FER ([3]; FER P16591-1, experiment wp105): −0.8737
logFC of FER ([3]; FER P16591-1, experiment wp107): −1.722
logFC of FER ([3]; FER P16591-1, experiment wp117): −1.753
logFC of FER ([3]; FER P16591-1, experiment wp160, 2 hr): −0.5384
logFC of FER ([3]; FER P16591-1, experiment wp160, 4 hr): −1.454
logFC of FER ([3]; FER P16591-1, experiment wp160, 8 hr): −1.737
logFC of FER ([3]; FER P16591, experiment wp152): −1.698
logFC of FER (P16591) ([3]; experiment wp152): −1.698
logFC of WEE1 ([4]; WEE1 P30291-1, experiment wp160, 8 hr): −0.352
logFC WEE1 (P30291-1) ([4]; experiment wp160, 8 hr): −0.352
logFC of SIK2 ([5]; experiment wp045): −0.638
logFC of SIK2 ([5]; experiment wp107): −0.5933
logFC of SIK2 ([5]; experiment wp114): −0.4347
logFC of SIK2 ([5]; experiment wp117): −0.4315
logFC of SIK2 ([5]; experiment wp160, 4 hr): −0.5421
logFC of SIK2 ([5]; experiment wp160, 8 hr): −0.5707
logFC SIK2 (Q9H0K1) ([5]; Experiment wp114): −0.4347
logFC SIK2 ([5]; SIK2 (Q9H0K1), experiment wp045, down): −0.638
logFC SIK2 (Q9H0K1) ([5]; experiment wp107): −0.5933
logFC SIK2 (Q9H0K1) ([5]; experiment wp117): −0.4315
logFC SIK2 (Q9H0K1) ([5]; experiment wp160, 4 hr): −0.5421
logFC SIK2 (Q9H0K1) ([5]; experiment wp160, 8 hr): −0.5707
logFC FYN ([6]; experiment wp107): −0.3999
logFC FYN ([6]; experiment wp160, 4 hr): −0.3922
logFC of SRC ([6]; experiment wp045): −0.4152
logFC of SRC ([6]; experiment wp105): −0.4412
logFC of SRC ([6]; experiment wp107): −0.4274
logFC of SRC ([6]; experiment wp117): −0.3839
logFC ([6]; CDK11B P21127-3, experiment wp103): −0.3334
logFC MAP3K20 (Q9NYL2-2) ([6]; Experiment wp045): −1.182
logFC MAPK8 (P45983-4) ([6]; Experiment wp045, direction down): −0.9774
logFC MAP3K20 (Q9NYL2-2) ([6]; Experiment wp103): −0.7004
logFC of MAPK8 (P45983-2) ([6]; Experiment wp103): −0.6109
logFC MAPK8 (P45983-2) ([6]; Experiment wp103, direction down): −0.6109
logFC MAPK8 (P45983-3) ([6]; Experiment wp105, direction down): −0.4094
logFC MAP3K20 (Q9NYL2-2) ([6]; Experiment wp107): −0.7825
logFC of MAPK8 (P45983-2) ([6]; Experiment wp107): −0.723
logFC MAPK8 (P45983-2) [6, 7]: −0.723
logFC TNK2 (Q07912-3) [6, 7]: −0.8258
